For test [1], the system named is U-87MG. Briefly: Cell viability assay, brain carcinoma cell line U-87MG. It is filed as cell-based. To be noted: Homo sapiens; U-87MG brain carcinoma cell line, 72 h, absolute IC50. The method, then: (§1) Antitumor activity of the compounds and doxorubicin as a positive control was assessed by using the CellTiter-Blue Cell Viability Assay (Promega, #G8082) or CellTiter-Glow® Luminescent Cell Viability assay (Promega # G7572) according to the manufacturer's instructions. The compounds were tested at 5 or 6 concentrations in half-log increments (highest concentration 30 μM-100 μM) in duplicate or triplicate well conditions.
(§2) Tumor cells were grown at 37° C. in a humidified atmosphere with 5% CO2 in RPMI 1640 or DMEM medium, supplemented with 10% (v/v) fetal calf serum and 50 μg/ml gentamicin for up to 20 passages, and were passaged once or twice weekly. Cells were harvested using TrypLE or PBS buffer containing 1 mM EDTA, and the percentage of viable cells is determined using a CASY Model TT cell counter (OMNI Life Science). Cells were harvested from exponential phase cultures, counted and plated in 96 well flat-bottom microtiter plates at a cell density depending on the cell line's growth rate (4,000-20,000 cells/well depending on the cell line's growth rate, up to 60,000 for hematological cancer cell lines) in RPMI 1640 or DMEM medium supplemented with 10% (v/v) fetal calf serum and 50 μg/ml gentamicin (140 μl/well). Cultures were incubated at 37° C. and 5% CO2 in a humidified atmosphere. After 24 h, 10 μl of test compounds or control medium are added, and left on the cells for another 72 h. Compounds were serially diluted in DMSO, transferred in cell culture medium, and added to the assay plates. The DMSO concentration was kept constant at <0.3% v/v across the assay plate. Viability of cells was quantified by the CellTiter-Blue® cell viability assay (Promega G8081) or CellTiter-Glow® Luminescent Cell Viability assay (Promega # G7572). Fluorescence (FU) was measured by using the EnSpire® multimode plate reader (Perkin Elmer) (excitation λ=570 nm, emission λ=600 nm) or luminescent detection of ATP in viable cells was used as parameter for proliferation. Luminescence was measured with the microplate luminometer (Promega or Perkin Elmer).
(§3) Sigmoidal concentration-response curves were fitted to the data points (test-versus-control, T/C values) obtained for each tumor model using 4 parameter non-linear curve fit (Charles River DRS Datawarehouse Software) or with GraphPad prism 5.02 software. IC50 values are reported as absolute IC50 values, being the concentration of test compound at the intersection of the concentration-response curves with T/C=50%

Test [2] relates to BR-05-0014E. Nature of the test: PDX cytotoxicity assay, breast PDX BR-05-0014E. The format is cell-based. The method, then: (§4) PDX-derived cell cultures were obtained from tumors explanted from mice and isolated by mechanical and enzymatic dissociation. […] Cells were harvested and seeded in 96-wells plates at a density of 1.25 to 5×10^3 cells/well for cytotoxicity assays. Cells were incubated 48 h at 37° C. prior to addition of test molecules and vehicle (DMSO, 0.1%) at desired final concentrations. Cell viability was assessed before drugs' addition (T0) and 5 days after test molecules addition by measuring ATP cell content using CellTiter-Glo® Luminescent Cell Viability Assay (Promega) according to the manufacturer's instructions. Luciferase activity was measured on a luminometer (PerkinElmer® EnVision™). Each concentration of compounds was tested in triplicate.
(§5) Viability was calculated as a percentage of ATP value compared to vehicle treated controls.
(§6) For PDX primary cell cultures, the tumour tissue was washed with PBS containing antibiotic-antimycotic and non-tumour tissue and necrotic tumour tissues were separated. The tumour tissue was transferred to a new dish and cut into 1˜2 mm^3 fragments, resuspended in RPMI-1640 medium and centrifuged at 1,200 rpm for 6 min at room temperature. The pelleted material was resuspended with 15 mL of Tumour Cell Digestion Solution and incubated at 37° C. for 1 hour with agitation. […]

Test [3] has as its system HBCx-3. Briefly: PDX cytotoxicity assay, breast PDX HBCx-3. It is filed as cell-based. The method, then: as §4, §5, §6
Test [4] concerns MOLT-16. Briefly: Cell viability assay, leukaemia cell line MOLT-16. To be noted: Homo sapiens; MOLT-16 leukaemia cell line. It is filed as cell-based. The method, then: as §1
(§7) Tumor cells were grown at 37° C. in a humidified atmosphere with 5% CO2 in RPMI 1640 or DMEM medium, supplemented with 10% (v/v) fetal calf serum and 50 μg/ml gentamicin for up to 20 passages, and were passaged once or twice weekly. Cells were harvested using TrypLE or PBS buffer containing 1 mM EDTA, and the percentage of viable cells is determined using a CASY Model TT cell counter (OMNI Life Science). Cells were harvested from exponential phase cultures, counted and plated in 96 well flat-bottom microtiter plates at a cell density depending on the cell line's growth rate (4,000-20,000 cells/well depending on the cell line's growth rate, up to 60,000 for hematological cancer cell lines) in RPMI 1640 or DMEM medium supplemented with 10% (v/v) fetal calf serum and 50 μg/ml gentamicin (140 μl/well). […] Viability of cells was quantified by the CellTiter-Blue® cell viability assay (Promega G8081) or CellTiter-Glow® Luminescent Cell Viability assay (Promega # G7572). […]

Test [5] deals with NALM-6. Nature of the test: Cell viability assay, leukaemia cell line NALM-6. It is filed as cell-based. To be noted: Homo sapiens; NALM-6 leukaemia cell line. The method, then: as §1, §7
Test [6] concerns NCI-H1299. Nature of the test: Cell viability assay, non-small cell lung carcinoma cell line NCI-H1299. Particulars: Homo sapiens. The format is cell-based. The method, then:
as §1, §2, §3

For test [7], the system named is SC6. Briefly: PDX cytotoxicity assay, small cell lung carcinoma PDX SC6. It is filed as cell-based. The method, then: as §4, §5, §6
In test [8] the test system is SU-DHL-4. Nature of the test: Cell viability assay, lymphoma cell line SU-DHL-4. It is filed as cell-based. Particulars: Homo sapiens; SU-DHL-4 lymphoma cell line. On the procedure: as §1, §7
Test [9] relates to DOHH-2. Nature of the test: Cell viability assay, lymphoma cell line DOHH-2. Particulars: Homo sapiens; DOHH-2 lymphoma cell line. The format is cell-based. On the procedure: as §1, §7
Test [10] relates to LY-24-0340. Nature of the test: PDX cytotoxicity assay, lymphoma PDX LY-24-0340. It is filed as cell-based. The method, then: as §4, §5, §6
Test [11] concerns HN-13-0020. Briefly: PDX cytotoxicity assay, head and neck PDX HN-13-0020. The format is cell-based. On the procedure:
as §4, §5, §6

For test [12], the system named is ES-06-0122. Nature of the test: PDX cytotoxicity assay, esophagus PDX ES-06-0122. The format is cell-based. On the procedure:
as §4, §5, §6

The subject of test [13] is ST-02-0322. Briefly: PDX cytotoxicity assay, stomach PDX ST-02-0322. The format is cell-based. The method, then:
as §4, §5, §6

The target in test [14] is T1, PIM1 (Homo sapiens, UniProt P11309).
T1 construct: purchased Eurofins (KINOMEscan assay service); host or cells: E. coli BL21-derived (T7 phage) or HEK-293
Briefly: KINOMEscan competition binding assay, PIM1. From the text:
(§8) The Hill Slope was set to −1.

The target in test [15] is T2, PIM2 (Homo sapiens, UniProt Q9P1W9).
T2 construct: purchased Eurofins (KINOMEscan assay service); host or cells: E. coli BL21-derived (T7 phage) or HEK-293
Briefly: KINOMEscan competition binding assay, PIM2.
Source text: as §8

Test [16] concerns the target T3, PIM3 (Homo sapiens, UniProt Q86V86).
T3 construct: purchased Eurofins (KINOMEscan assay service); host or cells: E. coli BL21-derived (T7 phage) or HEK-293
Briefly: KINOMEscan competition binding assay, PIM3.
Source text: as §8

The test system of test [17] is brain cancer cell. Nature of the test: Cell viability assay, brain cancer cell lines (summary). It is filed as cell-based. Particulars: summary of Tables 3A-D; read-out: IC50s, brain cancer cell growth. On the procedure: as §1, §2, §3
Test [18] concerns leukaemia cell. Nature of the test: Cell viability assay, leukaemia cell lines (summary). The format is cell-based. Particulars: summary of Table 6A; read-out: IC50, leukaemia cell growth. On the procedure:
as §1, §7

Broadly, the Kd is a measure of binding affinity in units of concentration. The low end stands for tighter binding, the high end for weaker binding.

Regarding `COc1c(O)ccc2c(=O)cc(-c3ccc(CNCCCCNCCCN)cc3)oc12` [SND164], the IC50 in [1] came out at 5.7 µM; in test [2] it was 13.3 µM; in test [3], 10 µM; in test [4] it was 4.36 µM; in test [5], 4.45 µM; in test [6] it was 1.25 µM. The IC50 in test [7] was 3.64 µM; in test [8], 3.3 µM; in [9], 4.3 µM; in [10], below 0.16 µM; in [11], 2.7 µM; in test [12], 5.7 µM. Moreover, the values for the IC50 in test [13], in test [17] and in test [18] were 5.45 µM, below 10 µM and below 10 µM, respectively. In addition, the Kd in [14] was determined as 0.58 µM; in [15] it was 0.63 µM; in test [16] it was 0.43 µM.
